Laboratory results published in patent US8680113B2, “BMI-1 protein expression modulators” (PTC Therapeutics, Inc., priority 2008, dated 2014).

Tests used:
[1] = test system: HT1080 cells (human fibrosarcoma cells); assay type: in vivo, nude mice
Procedure: (§1) HT1080 cells (human fibrosarcoma cells) were implanted subcutaneously in nude mice. After seven days, mice were administered compounds subcutaneously at 30 or 60 mg/kg/day for ten days. The tumors were then excised from mice and homogenized in Tris-HCl buffer containing a cocktail of proteinase inhibitors. Intratumor Bmi-1 levels were subsequently measured using the Bmi-1 ELISA assay of Example 1. Protein concentrations of the homogenates were measured with a Bio-Rad Protein assay kit and intratumor Bmi-1 levels were normalized to the protein concentrations. Treatment with the compound for ten days inhibited tumor growth by 35% as compared to the vehicle-treated control groups. […] Since p27 expression is not regulated by Bmi-1 activity, no changes in the levels of this protein were observed within treated tumors.

Bmi-1 [2] = test: In-Vivo Xenograft Model: intratumor Bmi-1 levels by Bmi-1 ELISA; design: species or system nude mice; conditions: subcutaneously at 30 or 60 mg/kg/day for ten days, compared to the vehicle control (p<0.002)
Procedure: as §1

p27 = test: In-Vivo Xenograft Model: intratumor p27 levels (control); design: species or system nude mice; conditions: subcutaneously at 30 or 60 mg/kg/day for ten days
Procedure: as §1

Bmi-1 [3] = test: Cell Model Assay: Bmi-1 expression in K562; assay type: cell-based; conditions: K562 (chronic myelogenous leukemia)
Procedure: (§2) Using assay conditions known to those skilled in the art, the ability of the compounds described herein to reduce Bmi-1 expression in HT1080 (fibrosarcoma), U87-MG (glioblastoma), T98G (glioblastoma), K562 (chronic myelogenous leukemia) and KG1 (acute myelogenous leukemia) cell lines was tested (at test compound concentrations calculated from the ELISA assay data shown in Example 1) compared to puromycin as a control to provide the EC50 values shown in Table 2. The term “ND” means that data was not determined.

Bmi-1 [4] = test: Cell Model Assay: Bmi-1 expression in KG1; assay type: cell-based; conditions: KG1 (acute myelogenous leukemia)
Procedure: as §2

MCL-Mino = test: Mantle Cell Lymphoma Assay: cytotoxicity, Mino; assay type: cell-based; conditions: MCL-Mino, 72 hrs; for viability at 0.004 µM / viability at 0.037 µM / viability at 0.11 µM / viability at 0.33 µM / viability at 1 µM / viability at 3 µM: Homo sapiens, read-out: Cell Viability (%)
Source text: (§3) MCL cell lines Jeko, Mino, and Rec-1 were provided by American Type Culture Collection: The Bioresource Center (Manassas, Va.). […] Carlsbad, Calif.) in T-75 culture flasks. Cell concentration was maintained between 2 to 3×10^5 cells/mL. Early passage cells (passages 2-4) were used for all experiments. Ficoll-Histopaque density sedimentation (Sigma Aldrich) was used for separation of debris and purification of cell lines prior to experiments. […] The cytotoxic effect of test compounds on the MCL-cell lines was assessed by measuring cell concentration and cell viability using a Beckman Coulter Vi-Cell Counter. Controls and treated cells were harvested and counted at day 3.

MCL-Jeko = test: Mantle Cell Lymphoma Assay: cytotoxicity, Jeko; assay type: cell-based; conditions: MCL-Jeko, 72 hrs
Source text: as §3

Bmi-1 [5] = test: Western Blot Analysis: Bmi-1 levels in MCL cell lines; assay type: cell-based; conditions: MCL cells cultured for 72 hrs, FIG. 2
Procedure: (§4) Western Blot analysis was used to determine cytoplasmic protein levels of Bmi-1 and activation of key executioner proteins (Caspases 3, 7, 8, 9) involved in apoptosis. Protein levels were measured in Bmi-1 inhibitor-treated mantle cell lymphoma cell lines. […] Cells were harvested at each time point, washed with ice-cold PBS, and lysed with 1× lysis buffer (20 mM Tris-HCl (pH 7.5), 150 mM NaCl, 1 mM Na2EDTA, 1 mM EGTA, 1% Triton, 2.5 mM sodium pyrophosphate, 1 mM beta-glycerophosphate, 1 mM Na3VO4, 1 μg/ml leupeptin; Cell Signaling Technology; Danvers, Mass.). Protein concentrations were determined using Pierce BCA protein assay (Thermo Scientific; Rockford, Ill.). Electrophoresis of cell lysates (25 μg) were performed with Mini Protean Systems by Bio-Rad Laboratories and run in Bio-Rad Readymade Pre-Cast Gels (4-20% Tris-HCl gels). Proteins were transferred onto PVDF membrane (Bio-Rad), and immunoblotted with anti-Bmi-1-clone F6 antibody (Millipore; Temecula, Calif.) and Caspases 3, 7, 8 and 9 (Cell Signaling Technology; Danvers, Mass.).

[6] = test system: Caspases 3, 7, 8, 9 and PARP; test: Western Blot Analysis: activation of apoptosis proteins in MCL cell lines; assay type: cell-based; conditions: MCL cells cultured for 72 hrs, FIG. 2
Procedure: as §4

[7] = test system: Jeko, Mino and Rec1 MCL-cell lines; test: Cell Cycle Analysis (propidium iodide flow cytometry); assay type: cell-based; conditions: MCL cells, 60 nM, FIG. 3
Procedure: Cell cycle analysis was performed for MCL-cell lines treated with Bmi-1 inhibitor Compounds 1 (data not shown), 14 and 49 (data not shown). For example, Jeko, Mino and Red cells treated with BMI-1 inhibitor Compound 14 at concentrations of 60 nM, 75 nM, and 60 nM, respectively were cultured in T-25 flasks for 24, 48 and 72 hours in 37° C. About 1×10^6 cells were harvested, washed with PBS, fixed with ice-cold 70% ethanol, and treated with 1 mg/ml RNase A (Invitrogen; Carlsbad, Calif.). Cells were then stained with 5 μL 1 mg/mL Propidium Iodide (Sigma-Aldrich; St. Louis, Mo.), incubated in ice for at least 1 hr, and the cell cycle profile was determined using flow cytometry analysis. The same protocol was followed for cell cycle analysis of Jeko, Mino, and Rec1 cell lines treated with Compounds 1 (data not shown) and 49 (data not shown).

COc1cc(Br)c(Nc2nc(-c3c(C)nc4ncccn34)cs2)c(Br)c1 [Cpd 1, N-(2,6-dibromo-4-methoxyphenyl)-4-(2-methylimidazo[1,2-a]pyrimidin-3-yl)thiazol-2-amine]
toxicity within treated mice ([1]; over the 10 day experiment): no toxicity was observed | inhibited tumor growth ([1]; subcutaneously at 30 or 60 mg/kg/day for ten days, compared to vehicle-treated control groups): 35% | reduced intratumor Bmi-1 protein levels (Bmi-1 [2]): 67% | p27 levels within treated tumors (p27): no changes | EC50 (Bmi-1 [3]): 374 nM | EC50 (Bmi-1 [4]): 321 nM | viability at 0.004 µM (MCL-Mino; 0.004 μM): 94.7 ± 0.2% | viability at 0.037 µM (MCL-Mino; 0.037 μM): 95.1 ± 0.2% | viability at 0.11 µM (MCL-Mino; 0.11 μM): 94.6 ± 0.2% | viability at 0.33 µM (MCL-Mino; 0.33 μM): 94.5 ± 0.3% | viability at 1 µM (MCL-Mino; 1 μM): 89.4 ± 0.4% | viability at 3 µM (MCL-Mino; 3 μM): 59.3 ± 0.5% | Cell Concentration (×10^6) (MCL-Mino; 0.004 μM): 1.53 ± 0.07 ×10^6 | Cell Concentration (×10^6) (MCL-Mino; 0.037 μM): 1.53 ± 0.05 ×10^6 | Cell Concentration (×10^6) (MCL-Mino; 0.11 μM): 1.55 ± 0.02 ×10^6 | Cell Concentration (×10^6) (MCL-Mino; 0.33 μM): 1.50 ± 0.02 ×10^6 | Cell Concentration (×10^6) (MCL-Mino; 1 μM): 0.74 ± 0.02 ×10^6 | Cell Concentration (×10^6) (MCL-Mino; 3 μM): 0.20 ± 0.01 ×10^6

COc1ccc(Nc2nc(-c3c(C)nc4ncccn34)cs2)cc1 [Cpd 14, N-(4-methoxyphenyl)-4-(2-methylimidazo[1,2-a]pyrimidin-3-yl)thiazol-2-amine]
Cell Concentration (×10^6) (MCL-Jeko; 0.004 μM): 1.83 ± 0.03 ×10^6 | viability at 0.004 µM (MCL-Jeko; 0.004 μM, read-out: Cell Viability (%)): 74.9 ± 0.55% | Cell Concentration (×10^6) (MCL-Jeko; 0.037 μM): 1.63 ± 0.05 ×10^6 | viability at 0.037 µM (MCL-Jeko; 0.037 μM, read-out: Cell Viability (%)): 69.4 ± 1.63% | Cell Concentration (×10^6) (MCL-Jeko; 0.11 μM): 0.07 ± 0.01 ×10^6 | viability at 0.11 µM (MCL-Jeko; 0.11 μM, read-out: Cell Viability (%)): 6.5 ± 0.55% | Cell Concentration (×10^6) (MCL-Jeko; 0.33 μM): 0.02 ± 0.00 ×10^6 | viability at 0.33 µM (MCL-Jeko; 0.33 μM, read-out: Cell Viability (%)): 1.9 ± 0.31% | Cell Concentration (×10^6) (MCL-Jeko; 1 μM): 0.02 ± 0.00 ×10^6 | viability at 1 µM (MCL-Jeko; 1 μM, read-out: Cell Viability (%)): 1.6 ± 0.26% | Cell Concentration (×10^6) (MCL-Jeko; 3 μM): 0.03 ± 0.00 ×10^6 | viability at 3 µM (MCL-Jeko; 3 μM, read-out: Cell Viability (%)): 2.5 ± 0.35% | viability at 0.004 µM (MCL-Mino; 0.004 μM): 92.27 ± 0.38% | viability at 0.037 µM (MCL-Mino; 0.037 μM): 64.5 ± 16.6% | viability at 0.11 µM (MCL-Mino; 0.11 μM): 40.6 ± 1.91% | viability at 0.33 µM (MCL-Mino; 0.33 μM): 18.1 ± 1.78% | viability at 1 µM (MCL-Mino; 1 μM): 13.5 ± 1.85% | viability at 3 µM (MCL-Mino; 3 μM): 14.1 ± 0.28% | Cell Concentration (×10^6) (MCL-Mino; 0.004 μM): 1.26 ± 0.01 ×10^6 | Cell Concentration (×10^6) (MCL-Mino; 0.037 μM): 0.66 ± 0.24 ×10^6 | Cell Concentration (×10^6) (MCL-Mino; 0.11 μM): 0.23 ± 0.01 ×10^6 | Cell Concentration (×10^6) (MCL-Mino; 0.33 μM): 0.06 ± 0.01 ×10^6 | Cell Concentration (×10^6) (MCL-Mino; 1 μM): 0.05 ± 0.01 ×10^6 | Cell Concentration (×10^6) (MCL-Mino; 3 μM): 0.05 ± 0.00 ×10^6 | Bmi-1 levels (Bmi-1 [5]): time dependant decrease | activation of Caspase-9 and PARP [6]: activation of Caspase-9 and PARP | DNA content ([7]; at 48 and 72 hrs): increase in DNA content | cell cycle profile ([7]; at 24 hrs): G2/M block
